Legend:
[1] = tested on: normal NK cells expanded with K562-aAPC; assay: percent inhibition of viability; higher = more inhibition; settings: 72 h, IL-2 2.5 ng/mL
Method: (§1)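 Drug sensitivity and resistance testing on K562-aAPC-expanded normal NK cells: 5 concentrations (10-fold steps over a 10,000-fold range), 72 h at 37 °C, viability by CellTiter-Glo normalised to DMSO and benzethonium chloride controls; DSS from the fitted curve.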

DERL-7 (IL-2 2.5 ng/mL) [2] = assay: drug sensitivity score (DSS) (DSS units); higher = more sensitive; extreme values may be limits of the assay; settings: 72 h
IMC-1 (IL-2 20 ng/mL) [3] = assay: as above; settings: 72 h
KAI3 (IL-2 2.5 ng/mL) [4] = assay: as above; settings: 72 h
SNK-6 (IL-2 2.5 ng/mL) [5] = assay: as above; settings: 72 h
[6] = tested on: normal primary NK cells, pool 2 (3 donors) (IL-2 2.5 ng/mL); assay: as above; settings: 72 h
NK-92 (IL-2 2.5 ng/mL) [7] = assay: as above; settings: 72 h
YT (IL-2 2.5 ng/mL) [8] = assay: as above; settings: 72 h
[9] = tested on: normal primary NK cells, pool 1 (3 donors) (IL-2 2.5 ng/mL); assay: as above; settings: 72 h
NKL (IL-2 2.5 ng/mL) [10] = assay: as above; settings: 72 h
NK-YS (IL-2 2.5 ng/mL) [11] = assay: as above; settings: 72 h
[12] = tested on: normal primary NK cells, pool 3 (3 donors) (IL-2 2.5 ng/mL); assay: as above; settings: 72 h
[13] = tested on: normal primary NK cells, pool 1 (3 donors), resting (IL-2 0 ng/mL); assay: as above; settings: 72 h
KHYG-1 (IL-2 2.5 ng/mL) [14] = assay: as above; settings: 72 h
DERL-7 (IL-2 2.5 ng/mL) [15] = assay: percent inhibition of viability; higher = more inhibition; settings: 72 h
IMC-1 (IL-2 20 ng/mL) [16] = assay: as above; settings: 72 h
KAI3 (IL-2 2.5 ng/mL) [17] = assay: as above; settings: 72 h
SNK-6 (IL-2 2.5 ng/mL) [18] = assay: as above; settings: 72 h
[19] = tested on: normal primary NK cells, pool 2 (3 donors) (IL-2 2.5 ng/mL); assay: as above; settings: 72 h
NK-92 (IL-2 2.5 ng/mL) [20] = assay: as above; settings: 72 h
YT (IL-2 2.5 ng/mL) [21] = assay: as above; settings: 72 h
[22] = tested on: normal primary NK cells, pool 1 (3 donors) (IL-2 2.5 ng/mL); assay: as above; settings: 72 h
NKL (IL-2 2.5 ng/mL) [23] = assay: as above; settings: 72 h
NK-YS (IL-2 2.5 ng/mL) [24] = assay: as above; settings: 72 h
[25] = tested on: normal primary NK cells, pool 3 (3 donors) (IL-2 2.5 ng/mL); assay: as above; settings: 72 h
[26] = tested on: normal primary NK cells, pool 1 (3 donors), resting (IL-2 0 ng/mL); assay: as above; settings: 72 h
KHYG-1 (IL-2 2.5 ng/mL) [27] = assay: as above; settings: 72 h
[28] = tested on: normal NK cells expanded with K562-aAPC; assay: drug sensitivity score (DSS) (DSS units); higher = more sensitive; extreme values may be limits of the assay; settings: 72 h; IL-2 2.5 ng/mL
Method: as §1

COc1cccc2c1C(=O)c1c(O)c3c(c(O)c1C2=O)C[C@@](O)(C(=O)CO)C[C@@H]3O[C@H]1C[C@H](N)[C@H](O)[C@H](C)O1 [Doxorubicin] (max concentration tested 1000 nM)
percent inhibition of viability [%]
Settings	0.1 nM	1 nM	10 nM	100 nM	1000 nM
DERL-7 (IL-2 2.5 ng/mL) [15]	-0.26	-4.85	13.4	85.9	100
IMC-1 (IL-2 20 ng/mL) [16]	-7.6	-2.62	-0.06	88.2	99.8
KAI3 (IL-2 2.5 ng/mL) [17]	-17.1	-0.05	19.4	74.9	89.1
KHYG-1 (IL-2 2.5 ng/mL) [27]	-8.45	-6.72	-0.27	79.3	98.3
NK-92 (IL-2 2.5 ng/mL) [20]	-8.55	11.3	-2.45	64.2	96.6
NK-YS (IL-2 2.5 ng/mL) [24]	-8.43	-6.33	14.6	83.5	95.3
NKL (IL-2 2.5 ng/mL) [23]	-17.6	-0.29	89.2	102	97.3
SNK-6 (IL-2 2.5 ng/mL) [18]	20	14.8	5.01	80.6	94.3
YT (IL-2 2.5 ng/mL) [21]	-4.73	-5.55	-0.81	69.3	97.2
[1]	-3.12	-5.25	-1.72	39.8	99.8
[19]	-14	-6.82	-8.6	37.2	94.4
[22]	-9.2	-4.36	4.47	40.8	96.5
[25]	-4.57	-14.4	-9.04	23.1	97.2
[26]	-18	-16.6	1.78	70.1	92.1

Settings	drug sensitivity score
DERL-7 (IL-2 2.5 ng/mL) [2]	17.4
IMC-1 (IL-2 20 ng/mL) [3]	16
KAI3 (IL-2 2.5 ng/mL) [4]	16.2
KHYG-1 (IL-2 2.5 ng/mL) [14]	14.6
NK-92 (IL-2 2.5 ng/mL) [7]	12.8
NK-YS (IL-2 2.5 ng/mL) [11]	17.1
NKL (IL-2 2.5 ng/mL) [10]	28.7
SNK-6 (IL-2 2.5 ng/mL) [5]	15.5
YT (IL-2 2.5 ng/mL) [8]	13.3
[6]	10.2
[9]	10.3
[12]	8.97
[13]	13.3
[28]	10.8

Cc1cc(C)c(CNC(=O)c2cc(-c3ccc(CN4CCOCC4)cc3)cc3c2cnn3C2CCCC2)c(=O)[nH]1 [EPZ-5687] (max concentration tested 10000 nM)
percent inhibition of viability [%]
Settings	1 nM	10 nM	100 nM	1000 nM	10000 nM
DERL-7 (IL-2 2.5 ng/mL) [15]	-1.37	6.73	-10.3	-3.14	3.39
IMC-1 (IL-2 20 ng/mL) [16]	-4.92	-2.89	-1.1	-3.52	-3.58
KAI3 (IL-2 2.5 ng/mL) [17]	1.34	-2.83	3.75	-1.27	-8.91
KHYG-1 (IL-2 2.5 ng/mL) [27]	-5.28	1.66	-5.39	-4.15	-3.04
NK-92 (IL-2 2.5 ng/mL) [20]	-18.6	-17.5	-11.1	-7.12	-16.9
NK-YS (IL-2 2.5 ng/mL) [24]	-6.64	-3.26	-5.52	-1.38	4.13
NKL (IL-2 2.5 ng/mL) [23]	-7.92	-9.21	-9.03	-6.87	-4.34
SNK-6 (IL-2 2.5 ng/mL) [18]	-3.6	10.5	-5.25	-4.13	-15.8
YT (IL-2 2.5 ng/mL) [21]	-2.28	-2.31	-4.1	0.78	-1.43
[1]	-0.71	-3.48	-3.69	-2.2	0.02
[19]	-10.3	-5.37	-0.75	-12.1	-3.82
[22]	-2.66	-3.34	-7.26	-0.16	1.72
[25]	-6.45	-1.35	-6.34	-4.92	-4.19
[26]	-3.8	-2.57	0.76	26.6	18.2

Settings	drug sensitivity score
DERL-7 (IL-2 2.5 ng/mL) [2]	0
IMC-1 (IL-2 20 ng/mL) [3]	0
KAI3 (IL-2 2.5 ng/mL) [4]	0
KHYG-1 (IL-2 2.5 ng/mL) [14]	0
NK-92 (IL-2 2.5 ng/mL) [7]	0
NK-YS (IL-2 2.5 ng/mL) [11]	0
NKL (IL-2 2.5 ng/mL) [10]	0
SNK-6 (IL-2 2.5 ng/mL) [5]	0
YT (IL-2 2.5 ng/mL) [8]	0
[6]	0
[9]	0
[12]	0
[13]	4.36
[28]	0
